The record followed here is article PMC8001783, “New Lignanamides with Antioxidant and Anti-Inflammatory Activities Screened Out and Identified from Warburgia ugandensis Combining Affinity Ultrafiltration LC-MS with SOD and XOD Enzymes” (Antioxidants, 2021).

Assay [1] is described as follows: DPPH free radical scavenging assay. The following applies: 30 min, 517 nm, n = 3; for IC50: pure compounds. Here is the method: The DPPH free radical scavenging activities of extracts and pure compounds from stem barks of W. ugandensis were tested according to previous studies with slight modifications. Firstly, 10 µL solutions of the samples, appropriately diluted with MeOH, were homogeneously mixed with 190 µL solution of DPPH (0.1 mM in MeOH) in a 96-well plate. Secondly, the mixtures were gently shaken and put at room temperature for 30 min in the darkness. Finally, the absorbance was recorded at 517 nm with multifunctional microplate reader. Trolox was used as positive control, and MeOH was used as blank control. Each of the samples and controls were tested in triplicate (n = 3). The antioxidant activities of DPPH were expressed as IC50 (concentration of samples caused 50% inhibition) and TEAC values. The TEAC values were calculated from the standard curve of Trolox and expressed as millimoles of Trolox equivalents per gram of sample (mmol TE/g). The inhibition of the DPPH radical was calculated according to the following formula:DPPH scavenging activity (%) = (1 − absorbance of sample/absorbance of blank control) × 100,(1) where DPPH scavenging activities (%) were plotted against the concentration of samples to obtain the IC50.
In general terms: Loss of DPPH colour is used to gauge radical scavenging.

The test system of the next assay is xanthine oxidase (XOD). The assay is described as follows: Affinity ultrafiltration LC-MS/MS with XOD (relative binding affinity). Conditions: peaks of WUE-A4, XOD 2 U, 37 °C 1 h, n = 3. Here is the method: (§1) The experimental conditions were proposed according to previous relevant studies. Briefly, the optimized experiment was composed of three steps. Incubation was the first step, where 100 μL WUE-A4 (10.0 mg/mL), 10 µL SOD (2 U) or XOD (2 U), and 90 µL Tris-HCl (pH = 7.8) were mixed well in 1.5 mL EP tubes, and then incubated at 37 °C in the dark for 1 h. Meanwhile, the incubation operations of inactivated enzymes (inactivated enzymes were obtained by heating enzymes in a 99 °C water bath for 10 min) were the same as the active enzymes. Adsorption was the second step, where the incubated solutions were transferred to ultrafiltration tubes with 30 KDa (for SOD) or 10 KDa (for XOD) ultrafiltration membranes and then centrifuged at 10,000 rpm for 10 min at 25 °C. Simultaneously, components which had no binding affinity to enzymes were washed out. Immediately, 300 µL of Tris-HCl solution (pH = 7.8) was added to the ultrafiltration tubes and centrifuged at 10,000 rpm for 5 min at 25 °C to remove the potential unbound components. Desorption was the third step, where 300 µL of 90% (v/v) MeOH-H2O was added and incubated for 10 min at room temperature, and the mixed solutions were centrifuged at 10,000 rpm for another 10 min at 25 °C. After that, the desorption process was repeated two times to release those components with specific bindings to SOD or XOD from the enzyme-ligand complexes. Finally, those ultrafiltrates were dried and reconstituted in 50 µL MeOH for the HPLC-UV/ESI-MS/MS analysis.
(§2) HPLC-UV/ESI-MS/MS was carried out to characterize the components in WUE-A4 before and after ultrafiltration by using a Thermo Accela 600 series HPLC connected with a TSQ Quantum Access MAX mass spectrometer (Thermo Fisher Scientific, San Jose, CA, USA). A Waters Symmetry RP-C18 column (4.6 × 250 mm, 5 µm) was used to perform chromatographic analysis at 30 °C, and the mobile phase consisted of H2O with 0.1% formic acid (A) and ACN (B). The optimized HPLC elution procedures were as follows: 0–15 min, 17% B; 15–40 min, 17–30% B, 40–42 min: 30–56% B. The flow rate was 0.8 mL/min, the injection volume was 10 µL, and the HPLC-UV chromatograms were detected at a wavelength of 254 nm. The negative ion modes were applied to obtained ESI-MS/MS data. Moreover, the parameters of instrument were set as follows: the vaporizer temperature was 350 °C, the capillary temperature was 250 °C, the spray voltage was 3000 V, the cone voltage energy was 40 V, the collision energy was 10 V, the sheath gas pressure was 40 psi, the aux gas pressure was 10 psi, the drying gas flow rate was 6.0 L/min, and the mass range was set from 50 to 1100 (m/z) in the full-scan mode. Finally, the Thermo Xcalibur ChemStation (Thermo Fisher Scientific) was used for data acquisition and analysis.
(§3) For further evaluation of the affinity binding strength between the potential ligands and the target enzymes, the relative binding affinity (RBA) was employed to compare the variation of the correlated peak areas in the UF-HPLC-UV chromatograms before and after activation. The RBA formula is expressed as RBA = Aactive/Ainactivated, where the Aactive and Ainactivated represent the peak areas obtained from the WUE-A4 samples with activated and inactivated SOD or XOD, respectively.

For assay [2], the system named is superoxide dismutase (SOD). The assay is described as follows: Affinity ultrafiltration LC-MS/MS with SOD (relative binding affinity). Conditions: peaks of WUE-A4, SOD 2 U, 37 °C 1 h, n = 3. Also on record: key: -: No binding affinity. Here is the method: as §1, §2, §3
A short description of assay [3]: Ferric reducing antioxidant power (FRAP) assay. Conditions: 37 °C, 10 min, 593 nm, n = 3. On the procedure: The ferric reducing antioxidant power assays on different extracts and pure compounds of stem barks from W. ugandensis were tested according to previous studies with slight modifications. Firstly, freshly prepared FRAP reagent (Fe^3+-TPTZ solution) was composed of FeCl3∙6H2O (20 mM in H2O), TPTZ (10 mM in 40 mM HCl), and acetate buffer (300 mM, pH = 3.6) at a ratio of 1:1:10 (v/v/v), then incubated at 37 °C after preparation, and used within 1–2 h. Secondly, 10 µL of appropriately diluted solution of samples was added to the 190 µL freshly prepared FRAP reagent in 96-well plate. Thirdly, the mixtures were gently shaken and put at 37 °C for 10 min. Finally, the absorbance was recorded at 593 nm with multifunctional microplate reader. Trolox was used as a positive control, and MeOH was used as blank control. Each of the samples and controls were tested in triplicate (n = 3). The antioxidant activities of FRAP were expressed as FRAP values and TEAC values. The FRAP values were calculated and expressed as millimoles of Fe^2+ equivalents per gram of sample (mmol Fe^2+/g) based on a calibration curve plotted using FeSO4∙7H2O as standard at a concentration ranging from 0.0185 to 1.5 mM.

A short description of assay [4]: ABTS free radical scavenging assay. The following applies: 30 min, 734 nm, n = 3; for IC50: pure compounds. On the procedure:
The ABTS free radical scavenging activities of extracts and pure compounds from stem barks of W. ugandensis were tested according to previous studies with slight modifications. ABTS^+ solution was prepared by mixing equal volumes of potassium persulfate (4.9 mM in H2O) and ABTS (7.0 mM in H2O) and then incubated for 12 h in the darkness. The prepared ABTS^+ solution was diluted with MeOH to ensure an absorbance value about 0.700 ± 0.005 at 734 nm. Firstly, 10 µL of appropriately diluted solution of samples was added to the 190 µL ABTS^+ solution in 96-well plate. Secondly, the mixtures were gently shaken and put at room temperature for 30 min in the darkness. Finally, the absorbance was recorded at 734 nm with multifunctional microplate reader. Trolox was used as positive control, and MeOH was used as blank control. Samples and controls were tested in triplicate (n = 3). The antioxidant activities of ABTS were expressed as IC50 and TEAC values. The inhibition of the ABTS radicals was calculated according to the following formula:ABTS scavenging activity (%) = (1 − absorbance of sample/absorbance of blank control) × 100,(2) where ABTS scavenging activities (%) were plotted against the concentration of samples to acquire the IC50.

Values joined by “and” are separate entries in the source; they are usually repeats but may differ in a detail not shown here. Equal entries are not always repeated. Marks after values point to notes of the source that are not given here.

For the compound “1-(3,4-dihydroxy-5-methoxyphenyl)-1,2-dihydroxy-7,8-dihydroxy-N-[(4-hydroxyphenyl)-ethyl]-N′-[(4-hydroxyphenyl) -ethyl]-6-methoxynaphthalene-2,3-dicarboxamide [compound 12]”, the half-inhibitory concentration (IC50) (commonly the concentration that gives 50% inhibition) in assay [1] was determined as 142 ± 36.1 µM; in assay [4] it was 1150 ± 630 µM. Besides, the “UF-RBA XOD (relative binding affinity = Aactive/Ainactivated)” value in the assay with xanthine oxidase (XOD) is on record as 1.7 ± 0.5 ^b,c; in the assay with xanthine oxidase (XOD) (listed as peak 12), 1.70. The “UF-RBA SOD (relative binding affinity = Aactive/Ainactivated)” value in assay [2] is “-”. In addition, the FRAP value in assay [3] is recorded as 1.1 ± 0.2 ^c mmol Fe^2+/g.

Take `Cc1c(C)c2c(c(C)c1O)CCC(C)(C(=O)O)O2` (stereo not shown) [Trolox, 6-Hydroxy-2,5,7,8-tetramethylchroman-2-carboxylic acid, reference compound]: the “DPPH IC50” value in assay [1] (extracts/fractions) is listed as 9.0 ± 0.3 ^f µg/mL. The values for the IC50 in assay [1] and in assay [4] were 36 µM and 22.4 µM, respectively. Moreover, the FRAP value in assay [3] is 16.212 ± 1.271 mmol Fe^2+/g and 16.2 ± 1.3 ^a mmol Fe^2+/g. Also, the “ABTS IC50” value in assay [4] (extracts/fractions) is listed as 5.9 ± 0.1 ^e µg/mL.

As to `C[C@@H]1O[C@@H](O[C@@H]2[C@@H](O)[C@H](O)[C@@H](CO)O[C@H]2c2cc(-c3cc(=O)c4c(O)cc(O)cc4o3)ccc2O)[C@H](O)[C@H](O)[C@H]1O` [compound 3, 2-[3-[2-O-(6-deoxy-α-L-mannopyranosyl)-β-D-glucopyranosyl]-4-hydroxyphenyl]-5,7-dihydroxy-4H-1-benzopyran-4-one], the “UF-RBA XOD (relative binding affinity = Aactive/Ainactivated)” value in the assay with xanthine oxidase (XOD) is recorded as 1.0 ± 0.2 ^d. Further, the entries for the “UF-RBA SOD (relative binding affinity = Aactive/Ainactivated)” value in assay [2] and in assay [2] (listed as peak 3) were 2.0 ± 0.1 ^a,b and 1.99, respectively.

As for `O=C1OCC2OC(Oc3ccc(cc3)C(=O)OCC3OC(Oc4ccc1cc4)C(O)C(O)C3O)C(O)C(O)C2O` [compound 5, 4-[(6′-O-β-D-allopyranosyl)-oxy]-hydroxy-benzoic acid cyclic dimeric inner ester], in the assay on xanthine oxidase (XOD), the “UF-RBA XOD (relative binding affinity = Aactive/Ainactivated)” value was 1.2 ± 0.1 ^c,d. In addition, the “UF-RBA SOD (relative binding affinity = Aactive/Ainactivated)” value in assay [2] is 1.1 ± 0.1 ^e.
